Data taken from patent publication US20250352520A1, “USE OF DEXPRAMIPEXOLE FOR THE TREATMENT OF EOSINOPHILIC COPD” (Areteia Therapeutics, Inc., priority 2024, published 2025).
Like-named read-outs stand apart in the source and are kept apart here.

What was measured:
[1] = for CT Scan - Small Airways Disease, Change from Baseline / CT Scan - Small Airways Disease, Result / CT Scan Parametric Imaging - Emphysema, Change from Baseline / CT Scan Parametric Imaging - Emphysema, Result / CT Scan - Air Trapping Index -856 HU, Change from Baseline / CT Scan - Air Trapping Index -856 HU, Result: Week 16; for CT Scan - Air Trapping Index -856 HU, Change from Baseline: first Change column under heads Inspiratory | Expiratory; for CT Scan - Air Trapping Index -856 HU, Result: first Result column under heads Inspiratory | Expiratory
Description: All eligible participants received inspiratory and expiratory CT scans at Baseline and at Week 16 to assess for changes in mucus plugs and airway architecture (e.g., changes in airway wall thickness).

[2] = across the dose groups at various time-points
[3] = for SGRQ-C Questionnaire - Total Score, CFB (Change from baseline), Max / SGRQ-C Questionnaire - Total Score, CFB (Change from baseline), Mean ± SD / SGRQ-C Questionnaire - Total Score, CFB (Change from baseline), Median / SGRQ-C Questionnaire - Total Score, CFB (Change from baseline), Min / SGRQ-C Questionnaire - Total Score, CFB (Change from baseline), Q1 / SGRQ-C Questionnaire - Total Score, CFB (Change from baseline), Q3 / SGRQ-C Questionnaire - Total Score, Observed, Max / SGRQ-C Questionnaire - Total Score, Observed, Mean ± SD / SGRQ-C Questionnaire - Total Score, Observed, Median / SGRQ-C Questionnaire - Total Score, Observed, Min / SGRQ-C Questionnaire - Total Score, Observed, Q1 / SGRQ-C Questionnaire - Total Score, Observed, Q3: Week 16, 150 mg BID
Description: The SGRQ-C questionnaire was developed from the SGRQ which was designed to measure health impairment in patients with asthma and COPD. The SGRQ-C is a shorter version (40 items compared with 50 items in SGRQ) derived from the original version following detailed analysis of data from large studies in COPD. The FDA has stated that the SGRQ-C is acceptable for use as either a co-primary endpoint or as a secondary endpoint providing supporting evidence of efficacy in a clinical trial. In this study, assessment of SGRQ-C was a secondary endpoint.
The SGRQ-C total score is made up of three components: (1) symptoms frequency and severity of symptoms; (2) activity effect of disease on common daily physical activities; and (3) impacts psychosocial effects of the disease.
The threshold for a clinically significant difference between groups of participants and for changes within groups of participants was four units.

[4] = <50% AEC reduction at Week 16 (N = 4)
[5] = >=50% AEC reduction at Week 16 (N = 3)

CCCN[C@@H]1CCc2nc(N)sc2C1 [Dexpramipexole, (6R)-2-amino-4,5,6,7-tetrahydro-6-(propylamino)benzothiazole]
CT Scan - Small Airways Disease, Change from Baseline ([1]; Subject ID 10001-001-0001): −7.12 | CT Scan - Small Airways Disease, Result ([1]; Subject ID 10001-001-0001): 25.72 | CT Scan Parametric Imaging - Emphysema, Change from Baseline ([1]; Subject ID 10001-001-0001): 2.41 | CT Scan Parametric Imaging - Emphysema, Result ([1]; Subject ID 10001-001-0001): 36.28 | CT Scan - Air Trapping Index -856 HU, Change from Baseline ([1]; Subject ID 10001-001-0001): −0.29% | CT Scan - Air Trapping Index -856 HU, Result ([1]; Subject ID 10001-001-0001): 49.57% | CT Scan - Small Airways Disease, Change from Baseline ([1]; Subject ID 10001-008-0002): 2.18 | CT Scan - Small Airways Disease, Result ([1]; Subject ID 10001-008-0002): 51.14 | CT Scan Parametric Imaging - Emphysema, Change from Baseline ([1]; Subject ID 10001-008-0002): −0.73 | CT Scan Parametric Imaging - Emphysema, Result ([1]; Subject ID 10001-008-0002): 35.88 | CT Scan - Air Trapping Index -856 HU, Change from Baseline ([1]; Subject ID 10001-008-0002): 0.57% | CT Scan - Air Trapping Index -856 HU, Result ([1]; Subject ID 10001-008-0002): 68.06% | CT Scan - Small Airways Disease, Change from Baseline ([1]; Subject ID 10001-010-0005): −3.80 | CT Scan - Small Airways Disease, Result ([1]; Subject ID 10001-010-0005): 39.08 | CT Scan Parametric Imaging - Emphysema, Change from Baseline ([1]; Subject ID 10001-010-0005): 0.16 | CT Scan Parametric Imaging - Emphysema, Result ([1]; Subject ID 10001-010-0005): 12.11 | CT Scan - Air Trapping Index -856 HU, Change from Baseline ([1]; Subject ID 10001-010-0005): −2.18% | CT Scan - Air Trapping Index -856 HU, Result ([1]; Subject ID 10001-010-0005): 29.57% | CT Scan - Small Airways Disease, Change from Baseline ([1]; Subject ID 10001-022-0001): −4.12 | CT Scan - Small Airways Disease, Result ([1]; Subject ID 10001-022-0001): 46.36 | CT Scan Parametric Imaging - Emphysema, Change from Baseline ([1]; Subject ID 10001-022-0001): −4.75 | CT Scan Parametric Imaging - Emphysema, Result ([1]; Subject ID 10001-022-0001): 8.59 | CT Scan - Air Trapping Index -856 HU, Change from Baseline ([1]; Subject ID 10001-022-0001): −11.40% | CT Scan - Air Trapping Index -856 HU, Result ([1]; Subject ID 10001-022-0001): 27.88% | CT scoring for small airway disease ([1]; all patients): All patients showed an improvement in scoring | CT scoring for Air Trapping, change ([1]; one patient): −11.40 | CT scoring for emphysema, decrease ([1]; one patient): 4.75 points | CT scoring for small airway disease, improvement ([1]; one patient): 7.12 points | placebo-corrected change from baseline in pre-BD FEV1 [2]: clinically meaningful | SGRQ-C total score, decrease compared to baseline ([3]; AECR≥0.5 patients, 16 weeks): 12.08 points | SGRQ-C Questionnaire - Total Score, CFB (Change from baseline), Max [3, 4]: 3.9 | SGRQ-C Questionnaire - Total Score, CFB (Change from baseline), Mean ± SD [3, 4]: −4.15 ± 6.817 | SGRQ-C Questionnaire - Total Score, CFB (Change from baseline), Median [3, 4]: −5.18 | SGRQ-C Questionnaire - Total Score, CFB (Change from baseline), Min [3, 4]: −10.1 | SGRQ-C Questionnaire - Total Score, CFB (Change from baseline), Q1 [3, 4]: −9.8 | SGRQ-C Questionnaire - Total Score, CFB (Change from baseline), Q3 [3, 4]: 1.5 | SGRQ-C Questionnaire - Total Score, Observed, Max [3, 4]: 63.2 | SGRQ-C Questionnaire - Total Score, Observed, Mean ± SD [3, 4]: 45.45 ± 19.893 | SGRQ-C Questionnaire - Total Score, Observed, Median [3, 4]: 50.64 | SGRQ-C Questionnaire - Total Score, Observed, Min [3, 4]: 17.3 | SGRQ-C Questionnaire - Total Score, Observed, Q1 [3, 4]: 32.1 | SGRQ-C Questionnaire - Total Score, Observed, Q3 [3, 4]: 58.8 | SGRQ-C Questionnaire - Total Score, CFB (Change from baseline), Max [3, 5]: −6.2 | SGRQ-C Questionnaire - Total Score, CFB (Change from baseline), Mean ± SD [3, 5]: −12.08 ± 5.544 | SGRQ-C Questionnaire - Total Score, CFB (Change from baseline), Median [3, 5]: −12.76 | SGRQ-C Questionnaire - Total Score, CFB (Change from baseline), Min [3, 5]: −17.2 | SGRQ-C Questionnaire - Total Score, CFB (Change from baseline), Q1 [3, 5]: −17.2 | SGRQ-C Questionnaire - Total Score, CFB (Change from baseline), Q3 [3, 5]: −6.2 | SGRQ-C Questionnaire - Total Score, Observed, Max [3, 5]: 45.0 | SGRQ-C Questionnaire - Total Score, Observed, Mean ± SD [3, 5]: 40.39 ± 7.250 | SGRQ-C Questionnaire - Total Score, Observed, Median [3, 5]: 44.09 | SGRQ-C Questionnaire - Total Score, Observed, Min [3, 5]: 32.0 | SGRQ-C Questionnaire - Total Score, Observed, Q1 [3, 5]: 32.0 | SGRQ-C Questionnaire - Total Score, Observed, Q3 [3, 5]: 45.0
